This experiment concerns the target T1, human chemokine receptor 2 isoform B (Homo sapiens, UniProt P41597).
T1 construct: host or cells: CHOK1-CCR2B-A5 (CHO-K1) cells
T1 sequence (P41597 1-360 isoform P41597-2): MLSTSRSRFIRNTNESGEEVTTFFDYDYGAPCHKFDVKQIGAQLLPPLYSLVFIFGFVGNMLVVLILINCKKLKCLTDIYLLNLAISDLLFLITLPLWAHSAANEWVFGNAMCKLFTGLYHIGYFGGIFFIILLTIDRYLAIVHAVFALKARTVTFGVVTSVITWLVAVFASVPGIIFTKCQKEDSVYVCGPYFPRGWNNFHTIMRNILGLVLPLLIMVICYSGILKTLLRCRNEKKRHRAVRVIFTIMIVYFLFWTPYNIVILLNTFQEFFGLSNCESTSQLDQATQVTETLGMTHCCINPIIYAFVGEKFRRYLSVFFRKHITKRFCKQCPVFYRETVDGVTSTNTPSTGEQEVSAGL
Nature of the experiment: Calcium mobilization assay. The class given is cell-based. The settings on record: Ca mobilization assay for CCR2; CHOK1-CCR2B-A5 cells; antagonist activity against 20 nM MCP-1; FLIPR, Fluo-4.

pIC50: −log10 of the molar value.

One may read the pIC50 as −log10 of the IC50, conventionally taken in molar units. Turning to `C[C@@H]1C(=O)N(CCCN2CCC3(CC3)[C@H](O)C2)CCN1c1ccc(C(F)(F)F)c(F)c1` [Example 103, (R)-4-(3-fluoro-4-trifluoromethyl-phenyl)-1-[3-((S)-4-hydroxy-6-aza-spiro[2.5]oct-6-yl)-propyl]-3-methyl-piperazin-2-one], the pIC50 is 7.04.

As for `C[C@H]1C(=O)N(C[C@H](O)CCN2CCC3(CC3)[C@H](O)C2)CCN1c1ccc(Cl)c(Cl)c1` [Example 104, (S)-4-(3,4-Dichloro-phenyl)-1-[(R)-2-hydroxy-4-((S)-4-hydroxy-6-aza-spiro[2.5]oct-6-yl)-butyl]-3-methyl-piperazin-2-one], the pIC50 is 6.69. `C[C@H]1C(=O)N(C[C@@H](O)CCN2CCC3(CC3)[C@H](O)C2)CCN1c1ccc(Cl)c(Cl)c1` [Example 105, (S)-4-(3,4-Dichloro-phenyl)-1-[(S)-2-hydroxy-4-((S)-4-hydroxy-6-aza-spiro[2.5]oct-6-yl)-butyl]-3-methyl-piperazin-2-one]: the negative-log IC50 (pIC50) is 7.57. For the compound `CC1C(=O)N(CC[C@H](O)CN2CCC3(CC3)[C@H](O)C2)CCN1c1ccc(Cl)c(Cl)c1` (stereo partly drawn) [Example 107, 4-(3,4-Dichloro-phenyl)-1-[(S)-3-hydroxy-4-((S)-4-hydroxy-6-aza-spiro[2.5]oct-6-yl)-butyl]-3-methyl-piperazin-2-one], the negative-log IC50 (pIC50) was 7.82.

For the origin of these results see patent US8138175B2, “Heterocyclyl compounds” (Hoffmann-La Roche Inc., priority 2008, dated 2012).
